Laboratory results from patent US8026368B2, “Hydrazide compounds and thrombopoietin receptor activators” (Nissan Chemical Industries, Ltd., priority 2005, dated 2011).

Target: T1, human thrombopoietin receptor (c-mpl) (Homo sapiens, UniProt P40238)
T1 construct: expressed in transfected cells
T1 sequence (P40238 26-635): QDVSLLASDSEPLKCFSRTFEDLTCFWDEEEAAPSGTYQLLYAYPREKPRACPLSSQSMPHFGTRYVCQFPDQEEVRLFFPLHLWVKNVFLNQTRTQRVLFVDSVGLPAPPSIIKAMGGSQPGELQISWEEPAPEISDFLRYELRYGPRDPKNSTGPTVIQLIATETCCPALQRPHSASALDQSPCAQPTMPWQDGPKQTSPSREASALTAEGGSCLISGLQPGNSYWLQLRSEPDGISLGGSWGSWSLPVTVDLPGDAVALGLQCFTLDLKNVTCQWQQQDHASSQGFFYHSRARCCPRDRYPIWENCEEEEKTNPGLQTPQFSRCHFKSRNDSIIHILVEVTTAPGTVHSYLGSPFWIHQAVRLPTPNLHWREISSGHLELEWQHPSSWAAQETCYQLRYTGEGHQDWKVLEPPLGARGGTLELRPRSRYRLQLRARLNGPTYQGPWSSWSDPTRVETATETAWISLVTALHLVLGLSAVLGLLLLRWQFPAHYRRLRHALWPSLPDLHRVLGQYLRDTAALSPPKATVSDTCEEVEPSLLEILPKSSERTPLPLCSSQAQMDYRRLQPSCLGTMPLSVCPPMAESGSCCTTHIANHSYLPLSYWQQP
Test: not given
Settings: cell line characterisation, Takatoku et al.; cited from earlier work

Compound	Proliferation of UT7/EPO-mpl cell line in response to TPO
TPO: Thrombopoietin (Pepro Tech EC), a cytokine consisting of 332 amino acids; reference stimulus at 10 ng/mL	stimulated

System: UT7/EPO
Test: not given
Settings: cell line characterisation, Takatoku et al.; cited from earlier work

Compound	Response of mother cell line UT7/EPO to TPO
TPO: Thrombopoietin (Pepro Tech EC), a cytokine consisting of 332 amino acids; reference stimulus at 10 ng/mL	no response

Target: T1, human thrombopoietin receptor (c-mpl)
Test: Stimulation of proliferation of thrombopoietin-dependent cell line UT7/EPO-mpl (WST-8)
Format: cell-based
Settings: human leukemic cell line UT-7/EPO-mpl, 4 days incubation, WST-8, relative to 10 ng/mL TPO; read-out: EC50 (concentration that yields a growth rate corresponding to 50% of the growth observed in the presence of 10 ng/mL TPO) (converted)
Experimental: The responses of thrombopoietin receptor to the compounds of the present invention prepared in the Synthetic Examples were assayed using a human leukemic cell line, UT7/EPO-mpl.
UT7/EPO-mpl is a stable transformed cell line obtained by introducing into human leukemic cell line UT7/EPO a vector that induces expression of human thrombopoietin receptor (c-mpl) under control of cytomegalovirus immediate-early promoter by the method of Takatoku et al. (J. Biol. Chem., 272:7259-7263 (1997)). […] These two cell lines were subcultured in IMDM (GIBCO) containing 10% fetal bovine serum (Thermo Electron or BioWest) using a CO2 incubator (5% CO2, 37° C.).
The subcultured cells described above were washed twice with PBS and suspended in IMDM containing 10% fetal bovine serum at a cell density of 6×10^4 cells/ml. The cell suspension was transferred to a 96-well tissue culture plate (CORNING) in 100-μl aliquots. Then either thrombopoietin (Pepro Tech EC) or the compounds of the Synthetic Examples dissolved in dimethyl sulfoxide were diluted 83-fold with IMDM containing 10% fetal bovine serum and added to the aforementioned cell suspension in 20-μl aliquots. The cell suspension was incubated in a CO2 incubator (5% CO2, 37° C.) for 4 days. Cell proliferation was assayed using WST-8 reagent (Kishida Chemical Co., Ltd.) according to instructions by the manufacturer. A 10-μl aliquot of 5 mM WST-8 reagent solution was added to each well of the tissue culture plate, and the plate was incubated at 37° C. for 4 hours. The formazan pigment generated was detected by measuring the absorbance at 450 nm with a 96-well microplate reader (Nihon Molecular Devices, Spectramax 190).
The concentration of each compound that yields a growth rate corresponding to 50% of the growth of human leukemic cell line UT-7/EPO-mpl observed in the presence of 10 ng/mL TPO (EC50) in the test on the compounds of the Synthetic Examples in Assay Example 1 are shown in Table 16.

Compound	EC50 [nM]
CC1=NN(c2ccc(C)c(C)c2)C(=O)/C1=C(/C)NNC(=O)c1ccc(C(=O)NCc2ccncc2)s1 [Example 2]	1.63
CC1=NN(c2ccc(C)c(C)c2)C(=O)/C1=C(/C)NNC(=O)c1ccc(C(=O)N2CC(O)C(O)C2)s1 (stereo not shown) [Example 3]	5.63
CC1=NN(c2ccc(C)c(C)c2)C(=O)/C1=C(/C)NNC(=O)c1ccc(C(=O)N2CCCC2)s1 [Example 4]	7.52
CC1=NN(c2ccc(C)c(C)c2)C(=O)/C1=C(/C)NNC(=O)c1ccc(C(=O)NN(C)C)s1 [Example 5]	6.16
CC1=NN(c2ccc(C)c(C)c2)C(=O)/C1=C(/C)NNC(=O)c1ccc(C(=O)NCc2ccccn2)s1 [Example 7]	3.58
CC1=NN(c2ccc(C)c(C)c2)C(=O)/C1=C(/C)NNC(=O)c1ccc(C(=O)NCc2cccnc2)s1 [Example 8]	0.676
CC1=NN(c2ccc(C)c(C)c2)C(=O)/C1=C(/C)NNC(=O)c1ccc(C(=O)NCCC(=O)O)s1 [Example 9]	8.89
CNC(=O)c1ccc(C(=O)NN/C(C)=C2\C(=O)N(c3ccc(C)c(C)c3)N=C2C)s1 [Example 10]	5.17
CC1=NN(c2ccc(C(C)(C)C)cc2)C(=O)/C1=C(/C)NNC(=O)c1ccc(C(=O)NC(C)C)s1 [Example 11]	1.16
CC1=NN(c2ccc(C(C)(C)C)cc2)C(=O)/C1=C(/C)NNC(=O)c1ccc(C(=O)NCc2ccncc2)s1 [Example 12]	0.528
CC1=NN(c2ccc(C(C)(C)C)cc2)C(=O)/C1=C(/C)NNC(=O)c1ccc(C(=O)N2CC(O)C(O)C2)s1 (stereo not shown) [Example 13]	1.01
CCN(CC)C(=O)c1ccc(C(=O)NN/C(C)=C2\C(=O)N(c3ccc(C(C)(C)C)cc3)N=C2C)s1 [Example 14]	11.7
CC1=NN(c2ccc(C(C)(C)C)cc2)C(=O)/C1=C(/C)NNC(=O)c1ccc(C(=O)N2CCCC2)s1 [Example 15]	5.27
CC1=NN(c2ccc(C(C)(C)C)cc2)C(=O)/C1=C(/C)NNC(=O)c1ccc(C(=O)NN(C)C)s1 [Example 16]	3.94
CC1=NN(c2ccc(C(C)(C)C)cc2)C(=O)/C1=C(/C)NNC(=O)c1ccc(C(=O)N2CCC(N3CCCC3)CC2)s1 [Example 17]	3.99
CC1=NN(c2ccc(C(C)(C)C)cc2)C(=O)/C1=C(/C)NNC(=O)c1ccc(C(=O)N2CCC(N(C)C)C2)s1 (stereo not shown) [Example 18]	5.03
CC1=NN(c2ccc(C(C)(C)C)cc2)C(=O)/C1=C(/C)NNC(=O)c1ccc(C(=O)NCc2ccccn2)s1 [Example 19]	2.64
CC1=NN(c2ccc(C(C)(C)C)cc2)C(=O)/C1=C(/C)NNC(=O)c1ccc(C(=O)NCc2cccnc2)s1 [Example 20]	0.528
CC1=NN(c2ccc(C(C)(C)C)cc2)C(=O)/C1=C(/C)NNC(=O)c1ccc(C(=O)NN2CCOCC2)s1 [Example 21]	1.2
COC1CN(C(=O)c2ccc(C(=O)NN/C(C)=C3\C(=O)N(c4ccc(C(C)(C)C)cc4)N=C3C)s2)CC1OC (stereo not shown) [Example 22]	5.78
CC1=NN(c2ccc(C(C)(C)C)cc2)C(=O)/C1=C(/C)NNC(=O)c1ccc(C(=O)NCC(=O)O)s1 [Example 23]	6.23

Compound	EC50 [nM]
CC1=NN(c2ccc(C(C)(C)C)cc2)C(=O)/C1=C(/C)NNC(=O)c1ccc(C(=O)NCCC(=O)O)s1 [Example 24]	5.86
CNC(=O)c1ccc(C(=O)NN/C(C)=C2\C(=O)N(c3ccc(C(C)(C)C)cc3)N=C2C)s1 [Example 25]	0.661
COCCNC(=O)c1ccc(C(=O)NN/C(C)=C2\C(=O)N(c3ccc(C(C)(C)C)cc3)N=C2C)s1 [Example 26]	1.23
CCCNC(=O)c1ccc(C(=O)NN/C(C)=C2\C(=O)N(c3ccc(C(C)(C)C)cc3)N=C2C)s1 [Example 27]	1.6
CC1=NN(c2ccc(C(F)(F)F)cc2)C(=O)/C1=C(/C)NNC(=O)c1ccc(C(=O)NC(C)C)s1 [Example 28]	0.871
CC1=NN(c2ccc(C(F)(F)F)cc2)C(=O)/C1=C(/C)NNC(=O)c1ccc(C(=O)NCc2ccncc2)s1 [Example 29]	1.59
CC1=NN(c2ccc(C(F)(F)F)cc2)C(=O)/C1=C(/C)NNC(=O)c1ccc(C(=O)N2CC(O)C(O)C2)s1 (stereo not shown) [Example 30]	5.02
CCN(CC)C(=O)c1ccc(C(=O)NN/C(C)=C2\C(=O)N(c3ccc(C(F)(F)F)cc3)N=C2C)s1 [Example 31]	8.28
CC1=NN(c2ccc(C(F)(F)F)cc2)C(=O)C1=C(C)NNC(=O)c1ccc(C(=O)N2CCCC2)s1 [Example 32]	6.53
CC1=NN(c2ccc(C(F)(F)F)cc2)C(=O)/C1=C(/C)NNC(=O)c1ccc(C(=O)NN(C)C)s1 [Example 33]	4.45
CC1=NN(c2ccc(C(F)(F)F)cc2)C(=O)/C1=C(/C)NNC(=O)c1ccc(C(=O)N2CCC(N3CCCC3)CC2)s1 [Example 34]	4.25
CC1=NN(c2ccc(C(F)(F)F)cc2)C(=O)/C1=C(/C)NNC(=O)c1ccc(C(=O)N2CCC(N(C)C)C2)s1 (stereo not shown) [Example 35]	6.93
CC1=NN(c2ccc(Cl)c(Cl)c2)C(=O)/C1=C(/C)NNC(=O)c1ccc(C(=O)NC(C)C)s1 [Example 37]	5.46
CC1=NN(c2ccc(Cl)c(Cl)c2)C(=O)/C1=C(/C)NNC(=O)c1ccc(C(=O)NCc2ccncc2)s1 [Example 38]	4.97
CC1=NN(c2ccc(Cl)c(Cl)c2)C(=O)/C1=C(/C)NNC(=O)c1ccc(C(=O)N2CC(O)C(O)C2)s1 (stereo not shown) [Example 39]	3.9
CC1=NN(c2ccc(Cl)c(Cl)c2)C(=O)/C1=C(/C)NNC(=O)c1ccc(C(=O)NN(C)C)s1 [Example 40]	5.65
CC1=NN(c2ccc(Cl)c(Cl)c2)C(=O)/C1=C(/C)NNC(=O)c1ccc(C(=O)N2CCC(N3CCCC3)CC2)s1 [Example 41]	4.75
CC1=NN(c2ccc(Cl)c(Cl)c2)C(=O)/C1=C(/C)NNC(=O)c1ccc(C(=O)NCc2ccccn2)s1 [Example 42]	5.34
CC1=NN(c2ccc(Cl)c(Cl)c2)C(=O)/C1=C(/C)NNC(=O)c1ccc(C(=O)NCc2cccnc2)s1 [Example 43]	4.6
COC1CN(C(=O)c2ccc(C(=O)NN/C(C)=C3\C(=O)N(c4ccc(Cl)c(Cl)c4)N=C3C)s2)CC1OC (stereo not shown) [Example 44]	11.3
